# Data as given in patent publication US20210382037A1, “IDENTIFICATION AND USE OF CYTOTOXIC T LYMPHOCYTE (CTL) ANTIGEN-SPECIFIC TARGET CELL KILLING ENHANCER AGENTS” (DANA-FARBER CANCER INSTITUTE, INC., priority 2017, published 2021).
# Tests used:
# [1] = system: ID8-lucOS cells (OVA-expressing ID8 target cells) co-cultured with OT-I CD8+ T cells; assay: OT-I CTL assay, high-throughput compound screen and dose-response validation; format: cell-based, mouse; conditions: for effect on OT-I T cell killing of ID8-lucOS target cells, dose-response validation: dose-response curves; for effect on OT-I T cell killing of ID8-lucOS target cells, dose-response validation / effect on OT-I T cell-mediated target cell lysis (normalized firefly/renilla luciferase ratio relative to DMSO): 48 hr; for effect on OT-I T cell-mediated target cell lysis (normalized firefly/renilla luciferase ratio relative to DMSO): pilot screen, 1 μM, duplicate plates
# Method: 10,000 ID8-lucOS and 10,000 ID8-rluc cells were plated in 1004, of cell culture media (DMEM+10% FBS+pen/strep) in solid white, flat-bottomed, tissue culture-treated 96-well plates (Thermo Fisher, Waltham, Mass.). Overnight-stimulated OT-I CD8^+ T cells were then added at the designated Effector:Target ratios with or without compounds in a total volume of 200 μL. Plates were incubated for 48 hr at 37° C. and 5% CO2. After 48 hr timepoint, 1004, of media was removed prior to dual-luciferase assay. Briefly: 504, of homemade Dual-Glo® luciferase buffer (Lu et al. Science 343: 305-309) was added to wells and incubated for 30 min before analysis of Firefly luminescence; then 504, of Dual-Glo® Stop & Glo® buffer was added, plates were incubated for 30 min, then analyzed for Renilla luminescence. An EnSpire plate reader (PerkinElmer, Waltham, Mass.) was used for quantification of luminescence. 203 compounds (listed above; details for LINCS kinase library can be found at lincs.hms.harvard.edu/db/sm/) were screened in high-throughput at 1 μM final concentration in duplicate, in 96-well plates in a first set that contained both OT-I CTLs and ID8 target cells and in a second set that contained ID8 target cells only. No compounds were placed in edge wells and all plates contained multiple DMSO control cells. Hits were calculated based on ΔΔCt method whereby ΔΔCt=(FLucDMSO/RLucDMSO)/(FLucCompound/RLucCompound) where values >1 were assessed as having augmented CTL killing, values ˜1 were assessed as having negligible immunomodulatory effect, and values <1 were assessed as having inhibited CTL killing. Hits from the high-throughput screen were validated with dose response curves using the indicated drug concentrations.
# For development of the OT-I IO assay, the ID8 murine serous ovarian carcinoma cell line was utilized due to its constitutive expression of MHC class-I, MHC haplotype compatibility with C57BL/6J mice, and dramatic IFN-γ-induced upregulation of PD-L1 (FIG. 10A and FIG. 10B). ID8s were transduced with pLVX vectors to express either firefly luciferase and OVA model antigen (“lucOS”) or renilla luciferase and no model antigen (“rluc”) (FIG. 2A). Target ID8 cell lines were mixed at a 1:1 ratio and co-cultured with CD8+ T cells isolated from the spleens of OT-I TCR-transgenic mice; OT-I mice express transgenic TCRα-V2 and TCRβ-V5 genes such that all CD8+ T cell receptors recognize chicken ovalbumin residues 257-264 ([…]) in the context of H-2Kb (Hogquist et al., 1994 Cell, 76:17-27). Target cell-T cell cultures were incubated with compounds for 48 hr and then analyzed by dual-luciferase assay whereby changes in firefly signal relative to controls indicated modulation of T cell killing by compound treatment (FIG. 2B and FIG. 2C).
# A high-throughput assay capable of identifying test compounds that specifically impaired or enhanced CD8^+ T cell-mediated killing of target ID8-lucOS “clone B9” cells in an antigen-specific manner was developed, as depicted in FIG. 2B. In such assays, a 96-well tissue culture plate array format was employed, and in each well, 10,000 ID8-lucOS and 10,000 ID8-rluc were co-plated. […] The OT-I assay was then performed as a high-throughput screen (FIG. 2C) to evaluate test compounds for immunomodulatory effects upon antigen-specific tumor cell killing by cytotoxic T lymphocytes (CTLs). Inclusion of ID8-lucOS and ID8-rluc in each well of the array-formatted test compound assay provided in-plate normalization controls, which allowed for identification of test compounds that effected non-specific growth inhibition or induction of apoptosis, versus identification of modulation by screen compounds of antigen-specific tumor cell killing by cytotoxic T lymphocytes. Such high-throughput screening was performed under standard ID8 cell growth conditions (37° C. and 5% 02) for initial rounds of test compound screening. […]
# [2] = system: IFN-γ secretion by OT-I CD8+ T cells; assay: OT-I IFN-γ ELISA; format: cell-based, mouse; conditions: supernatants at 48 hr; 100, 50, 10, 5, 1 nM; E:T 1:1 and 2:1
# Method: The supernatants from OT-I CTL assays, as described above, were harvested at the 48 hr timepoint prior to dual luciferase assay and analyzed for IFN-γ secretion by LEGEND MAX™ Mouse IFN-γ ELISA Kit (Biolegend, San Diego, Calif.) according to the manufacturer's protocol. […] Conditions were assayed with four replicate wells per experiment.
# Cell culture media from the OT-I IO assay was harvested from wells following 48 hr of culture with a range of EGFR inhibitors and the JAK2 inhibitor AZD-1480 and assessed for IFN-γ levels by ELISA. Secretion of IFN-γ was used as a proxy for OT-I T cell effector function. […] None of the EGFR inhibitors affected IFN-γ secretion, leading to the conclusion that the immunomodulatory effect of EGFR inhibition in the assay was not due to T cell-intrinsic effects.
# [3] = system: OVA-expressing KP cells (Kras^G12D/p53^−/− lung adenocarcinoma) co-cultured with OT-I CD8+ T cells; conditions: KP-Cas9 lucOS cells co-cultured with OT-I CD8+ T cells
# Text: The KP cell line was transduced with the same vectors to stably express Cas9 and the lusOS construct and co-cultured with OT-I CD8+ T cells.
# [4] = system: MHC class-I (H-2K^b) on ID8 tumor cells; assay: Flow cytometry of MHC class-I expression, ID8; format: cell-based, mouse; conditions: 100 nM, 48 hr, vs DMSO; for basal expression of MHC class-I by ID8 tumor cells: no IFN-γ; for MHC class-I expression induced by physiological levels of IFN-γ, ID8 tumor cells: with recombinant mouse IFN-γ
# Method: 100,000 ID8-lucOS, ID8-lucOS sgEGFR KO, Kras^G12D;p53^−/−, and MC38 cell lines were cultured in 12-well plates in 2 mL of culture media (DMEM+10% FBS+pen/strep) alone or supplemented with 4 ng/mL recombinant mouse IFN-γ (Biolegend, San Diego, Calif.) for 48 hr. […] Data were analyzed using FlowJo (Ashland, Oreg.) software version 10.0.9.
# MC38 colon cancer cells = format: in vivo; conditions: log-rank Mantel-Cox
# Method: C57BL/6J stock #000664 mice (Jackson labs, Bar Harbor, Me.) were challenged subcutaneously with 500,000 MC38 colon cancer cells on their flanks and “enrolled” on-study when tumors reached 50 mm^3. […] Depleting aCD8α was administered two days prior to first aPD-1 treatment. Mice used in experiments were 7-8 weeks of age at time of tumor challenge. Endpoint was considered to be when tumors reached a size of 2000 mm^3 or as mandated by institutional guidelines due to development of necrotic lesions.
# Specifically, for each of the experiments, C57BL/6J mice were challenged subcutaneously with 500,000 MC38 colon cancer cells on their flanks and “enrolled” on-study when tumors reached 50 mm^3. […] Flank tumor growth curves were analyzed using two-way ANOVA, bar graphs were analyzed using unpaired Student's t-test, and survival experiments used the log-rank Mantel-Cox test for survival analysis, all indicated with *p<0.05; **p<0.01; ***p<0.001.
# r/m SCCHN = r/m SCCHN patients; cited from earlier work
# [5] = target: chicken ovalbumin residues 257-264 (SIINFEKL) in the context of H-2Kb, presented on ID8-lucOS cells (mouse; chicken); assay: cell-based or functional assay
compound,measurement,setting,value
O=C1Nc2cc(Br)ccc2C1=C1Nc2ccccc2C1=O [6-bromoindirubin],"effect on OT-I T cell killing of ID8-lucOS target cells, dose-response validation",[1],only modestly augmented T cell killing
same,effect on OT-I T cell-mediated target cell lysis (normalized firefly/renilla luciferase ratio relative to DMSO),[1],significantly augmented T cell killing
Cc1cc(Nc2nc(N[C@@H](C)c3ncc(F)cn3)ncc2Cl)n[nH]1 [AZD-1480],"effect on OT-I T cell killing of ID8-lucOS target cells, dose-response validation",[1],significantly inhibited T cell killing
same,effect on OT-I T cell-mediated target cell lysis (normalized firefly/renilla luciferase ratio relative to DMSO),[1],inhibited T cell-mediated target cell lysis
same,IFN-γ secretion (ELISA),[2],significantly inhibited IFN-γ secretion in a dose-dependent manner
O=C(O)c1ccc(Nc2ncc3c(n2)-c2ccc(Cl)cc2C(c2c(F)cccc2F)=NC3)cc1 [MLN8054],effect on OT-I T cell-mediated target cell lysis (normalized firefly/renilla luciferase ratio relative to DMSO),[1],inhibited T cell-mediated target cell lysis
COc1cc(OC)c(/C=C/S(=O)(=O)Cc2ccc(OC)c(NCC(=O)O)c2)c(OC)c1 [Rigosertib],effect on OT-I T cell-mediated target cell lysis (normalized firefly/renilla luciferase ratio relative to DMSO),[1],inhibited T cell-mediated target cell lysis
CC(C)(C)c1cnc(CSc2cnc(NC(=O)C3CCNCC3)s2)o1 [SNS-032],effect on OT-I T cell-mediated target cell lysis (normalized firefly/renilla luciferase ratio relative to DMSO),[1],inhibited T cell-mediated target cell lysis
CN1C(=O)c2ccccc2N(C)c2nc(Nc3ccc(N4CCC(O)CC4)cc3)ncc21 [XMD-12-1],effect on OT-I T cell-mediated target cell lysis (normalized firefly/renilla luciferase ratio relative to DMSO),[1],inhibited T cell-mediated target cell lysis
CN(C)C/C=C/C(=O)Nc1cc2c(Nc3ccc(F)c(Cl)c3)ncnc2cc1O[C@H]1CCOC1 [afatinib],lysis of OVA-expressing ID8 target cells,[1]; concentrations down to 10 nM,lysis of almost all OVA-expressing ID8 target cells
same,"effect on OT-I T cell killing of ID8-lucOS target cells, dose-response validation",[1],significantly augmented OT-I T cell killing
same,OT-I T cell-mediated lysis of OVA-expressing KP cells,[3],significantly enhanced
same,IFN-γ secretion (ELISA),[2],did not appear to exert any enhancing effect
same,basal expression of MHC class-I by ID8 tumor cells,[4],significantly increased
same,"MHC class-I expression induced by physiological levels of IFN-γ, ID8 tumor cells",[4],significantly increased
same,survival relative to controls,MC38 colon cancer cells,none
same,reported ORR to monotherapy,r/m SCCHN,10%
C#Cc1cccc(Nc2ncnc3cc(OCCOC)c(OCCOC)cc23)c1 [erlotinib],"effect on OT-I T cell killing of ID8-lucOS target cells, dose-response validation",[1],confirmed to augment T cell-mediated tumor cell lysis
same,effect on OT-I T cell-mediated target cell lysis (normalized firefly/renilla luciferase ratio relative to DMSO),[1],significantly augmented T cell killing
same,OT-I T cell-mediated lysis of OVA-expressing KP cells,[3],significantly enhanced
same,IFN-γ secretion (ELISA),[2],did not appear to exert any enhancing effect
same,basal expression of MHC class-I by ID8 tumor cells,[4],significantly increased
same,"MHC class-I expression induced by physiological levels of IFN-γ, ID8 tumor cells",[4],significantly increased
COc1cc2ncnc(Nc3ccc(F)c(Cl)c3)c2cc1OCCCN1CCOCC1 [gefitinib],"effect on OT-I T cell killing of ID8-lucOS target cells, dose-response validation",[1],significantly augmented OT-I T cell killing
same,OT-I T cell-mediated lysis of OVA-expressing KP cells,[3],significantly enhanced
same,IFN-γ secretion (ELISA),[2],did not appear to exert any enhancing effect
same,basal expression of MHC class-I by ID8 tumor cells,[4],significantly increased
same,"MHC class-I expression induced by physiological levels of IFN-γ, ID8 tumor cells",[4],significantly increased
O=C1Nc2ccccc2/C1=C1/Nc2ccccc2C1=O [indirubicin],"effect on OT-I T cell killing of ID8-lucOS target cells, dose-response validation",[1],only mildly immunomodulatory
C=CC(=O)Nc1cc(Nc2nccc(-c3cn(C)c4ccccc34)n2)c(OC)cc1N(C)CCN(C)C [osimertinib],"effect on OT-I T cell killing of ID8-lucOS target cells, dose-response validation",[1],modestly enhanced killing
O=c1sn(-c2cccc3ccccc23)c(=O)n1Cc1ccccc1 [tideglusib],"effect on OT-I T cell killing of ID8-lucOS target cells, dose-response validation",[1],only mildly immunomodulatory
OT-I transgenic T cell receptor (TCRα-V2 / TCRβ-V5) on OT-I CD8+ T cells,"% killing of OVA-expressing ID8-lucOS target cells (dual-luciferase assay, 48 hr)",[5],50 % killing
pembrolizumab,reported ORR to monotherapy,r/m SCCHN,16%
